The assay is described as follows: Inhibitory concentration of the against pp60v-src tyrosine kinase obtained from v-src baculovirus-infected insect cells.

The values that follow come from BindingDB's records for doi:10.1021/jm00001a011 (University of Auckland, 1995).

SMILES strings stand for the structures. pIC50: −log10 of the molar value.

What is called pIC50 is −log10 of the IC50, conventionally taken in molar units. Higher therefore signals a low IC50.

Regarding `CN(C)C(=O)c1c(SSc2c(C(=O)N(C)C)c3ccccc3n2C)n(C)c2ccccc12` [1,3N,3N-trimethyl-2-(3-dimethylcarbamoyl-1-methyl-1H-2-indolyldisulfanyl)-1H-3-indolecarboxamide0.5 H2O], the pIC50 is 6.30.
Next, `O=C(O)CCc1c(SSc2[nH]c3ccccc3c2CCC(=O)O)[nH]c2ccccc12` [2,2 -Dithiobis(1H-indole-3-propanoic acid)]: 5.29; `Cn1c(SSc2c(C(N)=O)c3ccccc3n2C)c(C(N)=O)c2ccccc21` [2-(3-carbamoyl-1-methyl-1H-2-indolyldisulfanyl)-1-methyl-1H-3-indolecarboxamide0.5 H2O]: 6.10; `Cn1c(SSc2c(C(=O)Nc3ccccc3C(=O)O)c3ccccc3n2C)c(C(=O)Nc2ccccc2C(=O)O)c2ccccc21` [2-{2-[3-(2-carboxyphenylcarbamoyl)-1-methyl-1H-2-indolyldisulfanyl]-1-methyl-1H-3-indolylcarboxamido}benzoic acid2.0 H2O]: 5.46.
`Cn1c(SSc2c(C(=O)Nc3cccc(C(=O)O)c3)c3ccccc3n2C)c(C(=O)Nc2cccc(C(=O)O)c2)c2ccccc21` [3-{2-[3-(3-carboxyphenylcarbamoyl)-1-methyl-1H-2-indolyldisulfanyl]-1-methyl-1H-3-indolylcarboxamido}benzoic acid0.5 H2O] gave a pIC50 of 5.28.
As for `Cn1c(SSc2c(C(=O)NCC(O)CO)c3ccccc3n2C)c(C(=O)NCC(O)CO)c2ccccc21` (configuration not stated) [3N-(2,3-dihydroxypropyl)-2-[3-(2,3-dihydroxypropylcarbamoyl)-1-methyl-1H-2-indolyldisulfanyl]-1-methyl-1H-3-indolecarboxamide], the pIC50 is 4.65.
Molecule `Cn1c(SSc2c(C(=O)Nc3cccs3)c3ccccc3n2C)c(C(=O)Nc2cccs2)c2ccccc21` [3N-(2-thienyl)-1-methyl-2-[1-methyl-3-(2-thienylcarbamoyl)-1H-2-indolyldisulfanyl]-1H-3-indolecarboxamide] gave a pIC50 of less than 4.30.
In turn, `Cn1c(SSc2c(C(=O)Nc3cccnc3)c3ccccc3n2C)c(C(=O)Nc2cccnc2)c2ccccc21` [3N-(3-pyridyl)-1-methyl-2-[1-methyl-3-(3-pyridylcarbamoyl)-1H-2-indolyldisulfanyl]-1H-3-indolecarboxamide] showed a pIC50 of less than 4.30.
The molecule `Cn1c(SSc2c(C(=O)NCc3ccccc3)c3ccccc3n2C)c(C(=O)NCc2ccccc2)c2ccccc21` [3N-benzyl-2-(3-benzylcarbamoyl-1-methyl-1H-2-indolyldisulfanyl)-1-methyl-1H-3-indolecarboxamide] gave a pIC50 of 5.10.
`O=C(NCc1ccccc1)c1c(SSc2[nH]c3ccccc3c2C(=O)NCc2ccccc2)[nH]c2ccccc12` [3N-benzyl-2-(3-benzylcarbamoyl-1H-2-indolyldisulfanyl)-1H-3-indolecarboxamide] gave a pIC50 of 4.79.
Take `CCn1c(SSc2c(C(=O)Nc3ccccc3)c3ccccc3n2CC)c(C(=O)Nc2ccccc2)c2ccccc21` [3N-phenyl-1-ethyl-2-(1-ethyl-3-phenylcarbamoyl-1H-2-indolyldisulfanyl)-1H-3-indolecarboxamide]: the pIC50 is less than 4.00.
`O=C(Nc1ccccc1)c1c(SSc2[nH]c3ccccc3c2C(=O)Nc2ccccc2)[nH]c2ccccc12` [3N-phenyl-2-(3-phenylcarbamoyl-1H-2-indolyldisulfanyl)-1H-3-indolecarboxamide] gave a negative-log IC50 (pIC50) of 5.12.
Consider `Cn1c(SSc2c(C(=O)c3ccc(C(=O)O)cc3)c3ccccc3n2C)c(C(=O)c2ccc(C(=O)O)cc2)c2ccccc21` [4-{2-[3-(4-carboxybenzoyl)-1-methyl-1H-2-indolyldisulfanyl]-1-methyl-1H-3-indolylcarbonyl}benzoic acid2 H2O], for which the pIC50 was 5.40.
For `Cn1c(SSc2c(C(=O)Nc3ccc(C(=O)O)cc3)c3ccccc3n2C)c(C(=O)Nc2ccc(C(=O)O)cc2)c2ccccc21` [4-{2-[3-(4-carboxyphenylcarbamoyl)-1-methyl-1H-2-indolyldisulfanyl]-1-methyl-1H-3-indolylcarboxamido}benzoic acid H2O], the pIC50 was 5.37.
In the case of `Cn1c(SSc2c(C(=O)NCC(=O)O)c3ccccc3n2C)c(C(=O)NCC(=O)O)c2ccccc21` [({2-[3-(Carboxymethyl-carbamoyl)-1-methyl-1H-indol-2-yldisulfanyl]-1-methyl-1H-indole-3-carbonyl}-amino)-acetic acid], the pIC50 is 6.00.
In turn, `Cc1c(SSc2c(C)c3ccccc3n2C)n(C)c2ccccc12` [di(1,3-dimethyl-1H-2-indolyl) disulfide] had a pIC50 of less than 4.30.
`c1ccc(-c2c(SSc3[nH]c4ccccc4c3-c3ccccc3)[nH]c3ccccc23)cc1` [di(3-phenyl-1H-2-indolyl) disulfide] showed a pIC50 of less than 4.00.
Take `COC(=O)c1ccccc1NC(=O)c1c(SSc2c(C(=O)Nc3ccccc3C(=O)OC)c3ccccc3n2C)n(C)c2ccccc12` [methyl 2-{1-methyl-2-[1-methyl-3-(2-methyloxycarbonylphenylcarbamoyl)-1H-2-indolyldisulfanyl]-1H-3-indolylcarboxamido}benzoate0.5 H2O]: the pIC50 is 4.81.
`COC(=O)c1cccc(NC(=O)c2c(SSc3c(C(=O)Nc4cccc(C(=O)OC)c4)c4ccccc4n3C)n(C)c3ccccc23)c1` [methyl 3-{1-methyl-2-[1-methyl-3-(3-methyloxycarbonylphenylcarbamoyl)-1H-2-indolyldisulfanyl]-1H-3-indolylcarboxamido}benzoate] gave a pIC50 of 5.27.
Next, `COC(=O)c1ccc(C(=O)c2c(SSc3c(C(=O)c4ccc(C(=O)OC)cc4)c4ccccc4n3C)n(C)c3ccccc23)cc1` [methyl 4-{1-methyl-2-[1-methyl-3-(4-methyloxycarbonylbenzoyl)-1H-2-indolyldisulfanyl]-1H-3-indolylcarbonyl}benzoate]: 5.15.
Next, `COC(=O)c1ccc(CNC(=O)c2c(SSc3c(C(=O)NCc4ccc(C(=O)OC)cc4)c4ccccc4n3C)n(C)c3ccccc23)cc1` [methyl 4-{1-methyl-2-[1-methyl-3-(4-methyloxycarbonylbenzylcarbamoyl)-1H-2-indolyldisulfanyl]-1H-3-indolylcarboxamidomethyl}benzoate0.5 H2O]: 5.60.
In turn, `COC(=O)c1ccc(NC(=O)c2c(SSc3c(C(=O)Nc4ccc(C(=O)OC)cc4)c4ccccc4n3C)n(C)c3ccccc23)cc1` [methyl 4-{1-methyl-2-[1-methyl-3-(4-methyloxycarbonylphenylcarbamoyl)-1H-2-indolyldisulfanyl]-1H-3-indolylcarboxamido}benzoate H2O] gave a pIC50 of 5.38.
